# Reference: patent publication US8883782B2, “Spiro-tetracyclic ring compounds as beta-secretase modulators and methods of use” (Amgen Inc., priority 2010, dated 2014)
# Like-named read-outs stand apart in the source and are kept apart here.
# Columns and labels:
# [1] = molecular target: Beta Secretase enzyme (BACE) (Homo sapiens, UniProt P56817); assay: In vitro enzymatic BACE FRET (fluorescence resonance energy transfer) assay; type: biochemical; settings: average IC50, enzyme assay; read-out: BACE 1 FRET assay
# Beta Secretase enzyme (BACE), sequence (P56817 46-501, species assumed): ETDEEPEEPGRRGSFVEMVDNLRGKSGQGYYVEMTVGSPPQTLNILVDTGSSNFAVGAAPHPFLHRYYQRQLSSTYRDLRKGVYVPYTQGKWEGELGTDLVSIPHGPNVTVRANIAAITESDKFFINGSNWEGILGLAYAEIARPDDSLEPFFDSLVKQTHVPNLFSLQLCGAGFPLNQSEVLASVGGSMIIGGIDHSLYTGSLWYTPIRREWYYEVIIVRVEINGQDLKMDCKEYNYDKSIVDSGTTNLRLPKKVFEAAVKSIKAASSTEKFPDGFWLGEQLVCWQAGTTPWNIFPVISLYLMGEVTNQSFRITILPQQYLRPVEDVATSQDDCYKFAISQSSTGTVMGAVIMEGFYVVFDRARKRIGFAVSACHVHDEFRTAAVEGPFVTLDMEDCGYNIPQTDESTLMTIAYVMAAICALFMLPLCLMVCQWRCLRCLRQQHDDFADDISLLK
# In short: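 Cleavage of a 50 nM fluorophore/quencher peptide FRET substrate by BACE for 1 h in 0.05 M acetate pH 4.2, 10% DMSO, 100 uM genapol. Reaction stopped with Tris to neutral pH before fluorescence reading.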
# [2] = tested on: Aβ40 in conditioned medium of cells stably expressing Amyloid Precursor Protein (APP); assay: In vitro BACE cell-based assay (Aβ40 in conditioned medium, sandwich ELISA); settings: Homo sapiens, read-out: HEK cell assay
# In short: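 Step two: 10-point compound titration added, starting 100 μM or 10 μM, 0.1% DMSO. Step three: medium Aβ40 measured by ELISA, capture 3 h and detection 2 h at 4° C, TRF read.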
# [3] = HEK293, average IC50, HEK cells
Compound,IC50 [1] [nM],"IC50 [2, 3] [nM]","IC50 ([2]; HEK293, average IC50) [nM]"
"CC1(C#Cc2cnc3c(c2)[C@]2(COC(N)=N2)c2cc(-c4cncc(Cl)c4)c(F)cc2O3)COC1 [Example 626, (5S)-7-(5-chloro-3-pyridinyl)-8-fluoro-3-((3-methyl-3-oxetanyl)ethynyl)spiro[chromeno[2,3-b]pyridine-5,4′-[1,3]oxazol]-2′-amine]",0.8,6,–
"NC1=N[C@@]2(CO1)c1cc(-c3cccnc3F)ccc1Oc1ncc(N3CCC(F)(F)C3)cc12 [Example 479, (5S)-3-(3,3-difluoro-1-pyrrolidinyl)-7-(2-fluoro-3-pyridinyl)spiro[chromeno[2,3-b]pyridine-5,4′-[1,3]oxazol]-2′-amine]",1.1,4.4,–
"CC#Cc1cncc(-c2ccc3c(c2)[C@@]2(COC(N)=N2)c2cc(-c4ncccn4)ncc2O3)c1 [Example 936, (5S)-7-(5-(1-propyn-1-yl)-3-pyridinyl)-3-(2-pyrimidinyl)spiro[chromeno[2,3-c]pyridine-5,4′-[1,3]oxazol]-2′-amine]",3,28,–
"N#Cc1cccc(-c2ccc3c(c2)[C@@]2(COC(N)=N2)c2cc(C4=CCOCC4)ccc2O3)c1 [Example 195, 3-((4R)-2-amino-7′-(3,6-dihydro-2H-pyran-4-yl)spiro[1,3-oxazole-4,9′-xanthen]-2′-yl)benzonitrile]",9.4,–,63.1
"CC1(C#Cc2cc3c(cn2)Oc2ccc(-c4cncc(F)c4)cc2[C@@]32COC(N)=N2)COC1 [Example 153, (5S)-7-(5-fluoro-3-pyridinyl)-3-((3-methyl-3-oxetanyl)ethynyl)spiro[chromeno[2,3-c]pyridine-5,4′-[1,3]oxazol]-2′-amine]",9.2,–,46.2
"Cc1cncc(-c2ccc3c(c2)[C@@]2(COC(N)=N2)c2cc(C4=CCOCC4)cc(F)c2O3)c1 [Example 446, (4S)-2′-(3,6-dihydro-2H-pyran-4-yl)-4′-fluoro-7′-(5-methyl-3-pyridinyl)spiro[1,3-oxazole-4,9′-xanthen]-2-amine]",1.9,5.4,–
"NC1=N[C@]2(CO1)c1cc(C3=CCOCC3)ccc1Oc1ccc(-c3cncc(F)c3)cc12 [Example 193, (4R)-2′-(3,6-dihydro-2H-pyran-4-yl)-7′-(5-fluoro-3-pyridinyl)spiro[1,3-oxazole-4,9′-xanthen]-2-amine]",7.5,–,18
"CC#Cc1cncc(-c2ccc3c(c2)[C@@]2(CSC(N)=N2)c2cc(-c4cncc(C#CC)c4)cnc2O3)c1 [Example 730, (5S)-3,7-bis(5-(1-propyn-1-yl)-3-pyridinyl)spiro[chromeno[2,3-b]pyridine-5,4′-[1,3]thiazol]-2′-amine]",1.8,–,171
"COc1cc(F)c2c(c1)[C@]1(COC(N)=N1)c1cc(-c3cncc(C#CC(C)(C)OC)c3)ccc1O2 [Example 823, (4S)-4′-fluoro-2′-methoxy-7′-(5-(3-methoxy-3-methyl-1-butyn-1-yl)-3-pyridinyl)spiro[1,3-oxazole-4,9′-xanthen]-2-amine]",101,–,4300
"NC1=N[C@@]2(CO1)c1cc(-c3cccnc3F)ccc1Oc1cc(OC(F)(F)F)c(Br)cc12 [Example 989, (4S)-2′-bromo-7′-(2-fluoro-3-pyridinyl)-3′-(trifluoromethoxy)spiro[1,3-oxazole-4,9′-xanthen]-2-amine]",2380,–,≥ 10000
"NC1=N[C@]2(CS1)c1cc(-c3cncnc3)c(F)cc1Oc1c(F)cc(C3=CCCOC3)cc12 [Example 874, (4R)-7′-(5,6-dihydro-2H-pyran-3-yl)-3′,5′-difluoro-2′-(5-pyrimidinyl)spiro[1,3-thiazole-4,9′-xanthen]-2-amine]",32.5,506,–
"COCC1SC(N)=N[C@@]12c1cc(-c3cccnc3F)ccc1Oc1c(F)cc(OC)cc12 (stereo partly drawn) [Example 1090, (4R)-4′-fluoro-7′-(2-fluoro-3-pyridinyl)-2′-methoxy-5-(methoxymethyl)spiro[1,3-thiazole-4,9′-xanthen]-2-amine]",2400,–,> 10000
"NC1=N[C@@]2(CO1)c1cc(-c3cccc(Cl)c3)ccc1Oc1cnc(-c3ccc(F)c(F)c3)cc12 [Example 550, (5S)-7-(3-chlorophenyl)-3-(3,4-difluorophenyl)spiro[chromeno[2,3-c]pyridine-5,4′-[1,3]oxazol]-2′-amine]",0.5,127,–
"COc1cncc(-c2ccc3c(c2)[C@@]2(COC(N)=N2)c2cc(OCC(C)(C)C#N)cc(F)c2O3)c1 [Example 264, 3-(((4S)-2-amino-4′-fluoro-7′-(5-methoxy-3-pyridinyl)spiro[1,3-oxazole-4,9′-xanthen]-2′-yl)oxy)-2,2-dimethylpropanenitrile]",1,–,8.1
"NC1=N[C@@]2(CO1)c1cc(-c3cccnc3F)ccc1Oc1c(F)cc(N3CCC(F)(F)C3)cc12 [Example 271, (4S)-2′-(3,3-difluoro-1-pyrrolidinyl)-4′-fluoro-7′-(2-fluoro-3-pyridinyl)spiro[1,3-oxazole-4,9′-xanthen]-2-amine]",0.5,–,4.1
"CC(C)(C#N)COc1cc(F)c2c(c1)[C@]1(CSC(N)=N1)c1cc(-c3cccnc3F)ccc1O2 [Example 800, 3-(((4S)-2-amino-4′-fluoro-7′-(2-fluoro-3-pyridinyl)spiro[1,3-thiazole-4,9′-xanthen]-2′-yl)oxy)-2,2-dimethylpropanenitrile]",0.4,–,20
"NC1=N[C@@]2(CO1)c1cc(-c3cncc(F)c3)ccc1Oc1ncc(C3=CCOCC3)cc12 [Example 457, (5S)-3-(3,6-dihydro-2H-pyran-4-yl)-7-(5-fluoro-3-pyridinyl)spiro[chromeno[2,3-b]pyridine-5,4′-[1,3]oxazol]-2′-amine]",1.5,6.6,–
"NC1=N[C@@]2(CO1)c1cc(-c3cccnc3F)c(F)cc1Oc1c(F)cc(C3CCOCC3)cc12 [Example 872, (4S)-3′,5′-difluoro-2′-(2-fluoro-3-pyridinyl)-7′-(tetrahydro-2H-pyran-4-yl)spiro[1,3-oxazole-4,9′-xanthen]-2-amine]",0.6,15,–
"CC(C)(C#N)COc1ccc2c(c1)[C@@]1(COC(N)=N1)c1cc(C3=CCOCC3)cc(F)c1O2 [Example 441, 3-(((4S)-2-amino-7′-(3,6-dihydro-2H-pyran-4-yl)-5′-fluorospiro[1,3-oxazole-4,9′-xanthen]-2′-yl)oxy)-2,2-dimethylpropanenitrile]",4,14.4,–
"NC1=N[C@@]2(CS1)c1cc(-c3cccnc3F)ccc1Oc1ncc(-c3ccnc(F)c3)cc12 [Example 767, (5S)-7-(2-fluoro-3-pyridinyl)-3-(2-fluoro-4-pyridinyl)spiro[chromeno[2,3-b]pyridine-5,4′-[1,3]thiazol]-2′-amine]",1,–,23
"NC1=N[C@@]2(CO1)c1cc(-c3cncc(F)c3)ccc1Oc1c2cc(-c2cccnc2)nc1F [Example 630, (5S)-1-fluoro-7-(5-fluoro-3-pyridinyl)-3-(3-pyridinyl)spiro[chromeno[2,3-c]pyridine-5,4′-[1,3]oxazol]-2′-amine]",0.3,11,–
"Cc1ncccc1-c1ccc2c(c1)[C@@]1(COC(N)=N1)c1cc(-c3ccnc(F)c3)ncc1O2 [Example 248, (5S)-3-(2-fluoro-4-pyridinyl)-7-(2-methyl-3-pyridinyl)spiro[chromeno[2,3-c]pyridine-5,4′-[1,3]oxazol]-2′-amine]",99.1,–,191
"CC1(C)CC(c2cc3c(c(F)n2)Oc2ccc(-c4cccnc4F)cc2[C@@]32CSC(N)=N2)=CCO1 [Example 1034, (5S)-3-(2,2-dimethyl-3,6-dihydro-2H-pyran-4-yl)-1-fluoro-7-(2-fluoro-3-pyridinyl)spiro[chromeno[2,3-c]pyridine-5,4′-[1,3]thiazol]-2′-amine]",0.7,–,5
"COc1cncc(-c2ccc3c(c2)[C@@]2(COC(N)=N2)c2cc(-c4ncccn4)ncc2O3)c1 [Example 687, (5S)-7-(5-methoxy-3-pyridinyl)-3-(2-pyrimidinyl)spiro[chromeno[2,3-c]pyridine-5,4′-[1,3]oxazol]-2′-amine]",80.4,853,–
"Cc1ccnc(F)c1-c1ccc2c(c1)[C@@]1(COC(N)=N1)c1cc(N3CCOC(C)(C)C3)cnc1O2 [Example 482, (5S)-3-(2,2-dimethyl-4-morpholinyl)-7-(2-fluoro-4-methyl-3-pyridinyl)spiro[chromeno[2,3-b]pyridine-5,4′-[1,3]oxazol]-2′-amine]",3.4,14.4,–
"NC1=N[C@@]2(CO1)c1cc(-c3ccc(F)nc3)ccc1Oc1c(F)cc(OCC3CCOCC3)cc12 [Example 258, (4S)-4′-fluoro-7′-(6-fluoro-3-pyridinyl)-2′-(tetrahydro-2H-pyran-4-ylmethoxy)spiro[1,3-oxazole-4,9′-xanthen]-2-amine]",6,–,30.4
"NC1=N[C@@]2(CO1)c1cc(-c3cnccc3F)ccc1Oc1c(F)cc(C3=CCCOC3)cc12 [Example 1045, (4S)-2′-(5,6-dihydro-2H-pyran-3-yl)-4′-fluoro-7′-(4-fluoro-3-pyridinyl)spiro[1,3-oxazole-4,9′-xanthen]-2-amine]",0.6,–,12
"COc1nc(-c2ccnc(F)c2)cc2c1Oc1ccc(-c3cccnc3F)cc1[C@@]21COC(N)=N1 [Example 831, (5S)-7-(2-fluoro-3-pyridinyl)-3-(2-fluoro-4-pyridinyl)-1-methoxyspiro[chromeno[2,3-c]pyridine-5,4′-[1,3]oxazol]-2′-amine]",1.1,–,70
